Measurements published in patent publication US20240300980A1, “HETEROCYCLIC COMPOUNDS AS KRAS INHIBITOR, AND PREPARATION THEREFOR AND USE THEREOF IN TREATMENT” (SHANGHAI KECHOW PHARMA, INC., priority 2021, published 2024).

These compounds were tested on AGS cells (KRAS^G12D) (assay: Detection of cell proliferation in vitro by MTT/MTS method (cell activity experiment)). Details: Homo sapiens, AGS, 72 h, AGS cells; MTT/MTS; 3 days of drug treatment; read-out: AGS IC50.
Format: cell-based
Summary of the method: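 KRAS G12D AGS cells seeded at 1000 per well, compound added 24 h later, 0.5% final DMSO. Viability read after 3 days of treatment by MTT (solubilised in DMSO) or MTS, 4 h, absorbance 490 nm. IC50 from dose–response curves versus DMSO control.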
`C#Cc1c(F)ccc2cc(O)cc(-c3ccc4c(N5CCC(NS(C)(=O)=O)C5)nc(OC[C@@]56CCCN5C[C@H](F)C6)nc4c3F)c12` (stereo partly drawn) [Example 117, N-(1-(7-(8-ethynyl-7-fluoro-3-hydroxynaphthalen-1-yl)-8-fluoro-2-(((2R, 7aS)-2-fluorotetrahydro-1H-pyrrolizin-7a(5H)-yl)methoxy)quinazolin-4-yl)pyrrolidin-3-yl)methanesulfonamide] was tested, and the IC50 was > 2500 nM.
`C#Cc1cccc2cc(O)cc(-c3ccc4c(N5C[C@H]6CC[C@@H](C5)N6)nc(OC[C@@]56CCCN5C[C@H](F)C6)nc4c3)c12` [Example 152, 4-(4-((1R,5S)-3,8-diazabicyclo[3.2.1]octan-3-yl)-2-(((2R, 7aS)-2-fluorotetrahydro-1H-pyrrolizin-7a(5H)-yl)methoxy)quinazolin-7-yl)-5-ethynylnaphthalen-2-ol] gave an IC50 of 318 nM.
Work on `CC1CCCc2cc(O)cc(-c3c(-c4cn[nH]c4)cc4c(N5C[C@H]6CC[C@@H](C5)N6)nc(OC[C@@]56CCCN5C[C@H](F)C6)nc4c3F)c21` (stereo partly drawn) [Example 376, 4-(4-((1R,5S)-3,8-diazabicyclo[3.2.1]octan-3-yl)-8-fluoro-2-(((2R,7aS)-2-fluorotetrahydro-1H-pyrrolizin-7a(5H)-yl)methoxy)-6-(1H-pyrazol-4-yl)quinazolin-7-yl)-5-methyl-5,6,7,8-tetrahydronaphthalen-2-ol] yielded an IC50 of 100 nM.
`Oc1cc2c(c(C3=C(F)c4nc(OC[C@@]56CCCN5C[C@H](F)C6)nc(N5C[C@H]6CC[C@@H](C5)N6)c4C4=NCCN43)c1)CCCC2` [Example 406, 4-(10-((1R,5S)-3,8-diazabicyclo[3.2.1]octan-3-yl)-6-fluoro-8-(((2R,7aS)-2-fluorotetrahydro-1H-pyrrolizin-7a(5H)-yl)methoxy)-2,3-dihydroimidazo[1′,2′:1,2]pyrido[4,3-d]pyrimidin-5-yl)-5,6,7,8-tetrahydronaphthalen-2-ol] gave an IC50 of 120 nM.
`C#Cc1c(F)ccc2cc(O)cc(-c3ncc4c(N5CC6CC(C5)N6)nc(OC[C@@]56CCCN5C[C@H](F)C6)nc4c3F)c12` [Example 45, 4-(4-(3,6-diazabicyclo [3.1.1]heptan-3-yl)-8-fluoro-2-(((2R,7aS)-2-fluorotetrahydro-1H-pyrrolizin-7a(5H)-yl)methoxy)pyrido[4,3-d]pyrimidin-7-yl)-5-ethynyl-6-fluoronaphthalen-2-ol] gave an IC50 of 39 nM.
In the case of `Oc1cc2c(c(-c3ncc4c(N5C[C@H]6CC[C@@H](C5)N6)nc(OC[C@@]56CCCN5C[C@H](F)C6)nc4c3F)c1)C(C1CC1)CC2` (stereo partly drawn) [Example 267, 7-(4-((1R,5S)-3,8-diazabicyclo[3.2.1]octan-3-yl)-8-fluoro-2-(((2R,7aS)-2-fluorotetrahydro-1H-pyrrolizin-7a(5H)-yl)methoxy)pyrido[4,3-d]pyrimidin-7-yl)-1-cyclopropyl-2,3-dihydro-1H-inden-5-ol], the IC50 is reported as 1050 nM.
`Oc1cc(N2CCc3c(nc(OC[C@@]45CCCN4C[C@H](F)C5)nc3N3C[C@H]4CC[C@@H](C3)N4)C2)c2c(F)cccc2c1` [Example 205, 4-(4-((1R,5S)-3,8-diazabicyclo[3.2.1]octan-3-yl)-2-(((2R,7aS)-2-fluorotetrahydro-1H-pyrrolizin-7a(5H)-yl)methoxy)-5,8-dihydropyrido[3,4-d]pyrimidin-7(6H)-yl)-5-fluoronaphthalen-2-ol] was tested, and the IC50 was 18 nM.
Compound `CC[C@H]1CCCc2cc(O)cc(-c3ncc4c(N5CC6CCC(C5)N6)nc(OC[C@@]56CCCN5C[C@H](F)C6)nc4c3F)c21` (single isomer, unassigned) [Example 229, (S)-4-(4-((1R,5S)-3,8-diazabicyclo[3.2.1]octan-3-yl)-8-fluoro-2-(((2R,7aS)-2-fluorotetrahydro-1H-pyrrolizin-7a(5H)-yl)methoxy)pyrido[4,3-d]pyrimidin-7-yl)-5-ethyl-5,6,7,8-tetrahydronaphthalen-2-ol or (R)-4-(4-((1R,5S)-3,8-diazabicyclo[3.2.1]octan-3-yl)-8-fluoro-2-(((2R,7aS)-2-fluorotetrahydro-1H-pyrrolizin-7a(5H)-yl)methoxy)pyrido[4,3-d]pyrimidin-7-yl)-5-ethyl-5,6,7,8-tetrahydronaphthalen-2-ol] has an IC50 of 2.5 nM.
`C#Cc1cccc2cc(O)cc(-c3ncc4c(N5C[C@H]6CC[C@@H](C5)N6)c(C#N)c(OC[C@@]56CCCN5C[C@H](F)C6)nc4c3F)c12` [Example 189, 4-((1R,5S)-3,8-diazabicyclo[3.2.1]octan-3-yl)-7-(8-ethynyl-3-hydroxynaphthalen-1-yl)-8-fluoro-2-(((2R,7aS)-2-fluorotetrahydro-1H-pyrrolizin-7a(5H)-yl)methoxy)-1,6-naphthyridine-3-carbonitrile] showed an IC50 of 152 nM.
Compound `Oc1cc2c(c(-c3ncc4c(N5C[C@H]6CC[C@@H](C5)N6)nc(OC[C@@]56CCCN5C[C@H](F)C6)nc4c3F)c1)C(CF)CCC2` (stereo partly drawn) [Example 262, 4-(4-((1R,5S)-3,8-diazabicyclo[3.2.1]octan-3-yl)-8-fluoro-2-(((2R,7aS)-2-fluorotetrahydro-1H-pyrrolizin-7a(5H)-yl)methoxy)pyrido[4,3-d]pyrimidin-7-yl)-5-(fluoromethyl)-5,6,7,8-tetrahydronaphthalen-2-ol] has an IC50 of 305 nM.
`Oc1cc(-c2cnc3c(N4C[C@H]5CC[C@@H](C4)N5)nc(OC[C@@]45CCCN4C[C@H](F)C5)nc3c2)c2c(F)c(F)ccc2c1` [Example 199, 4-(4-((1R,5S)-3,8-diazabicyclo[3.2.1]octan-3-yl)-2-(((2R,7aS)-2-fluorotetrahydro-1H-pyrrolizin-7a(5H)-yl)methoxy)pyrido[3,2-d]pyrimidin-7-yl)-5,6-difluoronaphthalen-2-ol] was tested, and the IC50 was > 2500 nM.
For `C#Cc1c(F)ccc2cc(O)cc(-c3ccc4c(N5C[C@H]6CC[C@@H](C5)N6)nc(OC[C@@]56CCCN5C[C@H](F)C6)nc4n3)c12` [Example 140, 4-(4-((1R,5S)-3,8-diazabicyclo[3.2.1]octan-3-yl)-2-(((2R, 7aS)-2-fluorotetrahydro-1H-pyrrolizin-7a(5H)-yl)methoxy)pyrido[2,3-d]pyrimidin-7-yl)-5-ethynyl-6-fluoronaphthalen-2-ol], the IC50 was > 2500 nM.
For `C#Cc1cccc2cc(O)cc(-c3ncc4c(N5C[C@H]6CC[C@@H](C5)C6(F)F)nc(OC[C@@]56CCCN5C[C@H](F)C6)nc4c3F)c12` [Example 32, 4-(4-((1R,5S)-8,8-difluoro-3-azabicyclo [3.2.1]octan-3-yl)-8-fluoro-2-(((2R,7aS)-2-fluorotetrahydro-1H-pyrrolizin-7a(5H)-yl)methoxy)pyrido[4,3-d]pyrimidin-7-yl)-5-ethynylnaphthalen-2-ol], the IC50 was > 2500 nM.
`Oc1cc(-c2ccc3c(N4C[C@H]5CC[C@@H](C4)N5)c(C(F)(F)F)c(OC[C@@]45CCCN4C[C@H](F)C5)nc3c2F)c2c(F)c(F)ccc2c1` [Example 187, 4-(4-((1R,5S)-3,8-diazabicyclo[3.2.1]octan-3-yl)-8-fluoro-2-(((2R,7aS)-2-fluorotetrahydro-1H-pyrrolizin-7a(5H)-yl)methoxy)-3-(trifluoromethyl)quinolin-7-yl)-5,6-difluoronaphthalen-2-ol] gave an IC50 of 1410 nM.
`C#Cc1c(F)ccc2cc(O)cc(-c3ccc4c(N5CC6(CCN6)C5)nc(OC[C@@]56CCCN5C[C@H](F)C6)nc4c3F)c12` [Example 216, 5-ethynyl-6-fluoro-4-(8-fluoro-2-(((2R,7aS)-2-fluorotetrahydro-1H-pyrrolizin-7a(5H)-yl)methoxy)-4-(1,6-diazaspiro[3.3]heptan-6-yl)quinazolin-7-yl)naphthalen-2-ol] gave an IC50 of 3480 nM.
`Oc1cc2c(c(-c3ncc4c(N5C[C@H]6CC[C@@H](C5)N6)nc(OC[C@@]56CCCN5C[C@H](F)C6)nc4c3F)c1)C1(CCC2)CC1` [Example 256, 8′-(4-((1R,5S)-3,8-diazabicyclo[3.2.1]octan-3-yl)-8-fluoro-2-(((2R,7aS)-2-fluorotetrahydro-1H-pyrrolizin-7a(5H)-yl)methoxy)pyrido[4,3-d]pyrimidin-7-yl)-3′,4′-dihydro-2′H-spiro[cyclopropane-1,1′-naphthalen]-6′-ol] was tested, and the IC50 was 303 nM.
In the case of `C#Cc1c(F)ccc2cc(O)cc(-c3ncc4c(N5C[C@H]6CC[C@@H](C5)C6(F)F)nc(OC[C@@]56CCCN5C[C@H](F)C6)nc4c3F)c12` [Example 30, 4-(4-((1R,5S)-8,8-difluoro-3-azabicyclo[3.2.1]octan-3-yl)-8-fluoro-2-(((2R,7aS)-2-fluorotetrahydro-1H-pyrrolizin-7a(5H)-yl)methoxy)pyrido[4,3-d]pyrimidin-7-yl)-5-ethynyl-6-fluoronaphthalen-2-ol], the IC50 is reported as > 2500 nM.
For `C#Cc1cccc2cc(O)cc(-c3ccc4c(N5CCC6(CC5)CO[C@@H](C)[C@H]6N)nc(OC[C@@]56CCCN5C[C@H](F)C6)nc4c3F)c12` [Example 115, 4-(4-((3S,4S)-4-amino-3-methyl-2-oxa-8-azaspiro[4.5]decan-8-yl)-8-fluoro-2-(((2R, 7aS)-2-fluorotetrahydro-1H-pyrrolizin-7a(5H)-yl)methoxy)quinazolin-7-yl)-5-ethynylnaphthalen-2-ol], the IC50 was > 2500 nM.
For `CCc1c(F)ccc2cc(O)cc(-c3ncc4c(N5C[C@H]6CC[C@@H](C5)C6(F)F)nc(OC[C@@]56CCCN5C[C@H](F)C6)nc4c3F)c12` [Example 31, 4-(4-((1R,5S)-8,8-difluoro-3-azabicyclo [3.2.1]octan-3-yl)-8-fluoro-2-(((2R,7aS)-2-fluorotetrahydro-1H-pyrrolizin-7a(5H)-yl)methoxy)pyrido[4,3-d]pyrimidin-7-yl)-5-ethyl-6-fluoronaphthalen-2-ol], the IC50 was > 2500 nM.

Same assay, conditions: Homo sapiens, AGS, 72 h, read-out: AGS IC50
`CCC1CCc2cc(O)cc(-c3ncc4c(N5C[C@H]6CC[C@@H](C5)N6)nc(OC[C@@]56CCCN5C[C@H](F)C6)nc4c3F)c21` (stereo partly drawn) [Example 220, 7-(4-((1R,5S)-3,8-diazabicyclo[3.2.1]octan-3-yl)-8-fluoro-2-(((2R,7aS)-2-fluorotetrahydro-1H-pyrrolizin-7a(5H)-yl)methoxy)pyrido[4,3-d]pyrimidin-7-yl)-1-ethyl-2,3-dihydro-1H-inden-5-ol] was tested, and the IC50 was 5 nM.
